How the values were obtained:
Aβ40 = target: T1, Aβ40 (Homo sapiens, UniProt P05067); assay: Circular dichroism study of Aβ40 aggregation; conditions: 50 µM compound, 50 µM Aβ40 (1:1), PB pH 7.33, 33 °C, 40 days
T1 construct: Amyloid peptide Aβ40 was purchased from AnaSpec Co; purchased AnaSpec Co. (Fremont, CA, USA)
From the text: The pathogenesis of Alzheimer’s disease (AD) is widely associated with the aggregation of β-amyloid peptide (Aβ) either to soluble oligomers or to higher-order polymeric insoluble fibrils. As a result, one of the main therapeutic strategies against AD targets the aggregation process of Aβ, and a great number of small molecules are being investigated for their potential to intervene in the assembly of Aβ and inhibit its neurotoxicity in vitro and in vivo [64]. Circular dichroism (CD) spectroscopy is commonly used to probe the secondary structure of polypeptides and to monitor conformational changes and interactions of polypeptides with small molecules. The typical aggregation process of Aβ produces characteristic CD spectra over time that reflect the conformational changes that occur as the random coil monomers are converted into β-sheet oligomers, and then gradually to larger β-sheet formations that finally produce amyloid fibrils. CD is, therefore, a valuable tool to monitor the aggregation process of Aβ and to study the effect of potential aggregation inhibitors. To further investigate the pleiotropic effects of chalcones against AD, selected compounds from our library, were subjected to CD studies in order to evaluate their potential to interfere with the aggregation process of Aβ40. […] The aggregation spectra of plain Aβ40 show at day 0 the typical random coil peak (negative maximum at 198 nm) the intensity of which gradually decreases as the peptide forms β–sheet structures (negative maximum at 222 nm, day 15) that further aggregate to higher order polymeric fibrils. The precipitation of the insoluble fibrils from solution eventually results in the loss of CD signal (days 30 and 40). […] In view of the above results, chalcone derivatives bearing a three-carbon chain linker, specifically c2, c3, and c4, were subsequently studied in order to assess the effect of further derivatization and the presence of the chalcone moiety in the structure. […] Overall, our CD study identified three new structures capable of interfering with the aggregation process of Aβ, out of which compounds c2 and c4 display additional protective actions against AD and add to the pleiotropic profile of the chalcone derivatives.
Preparation of Aβ stocks and solutions. Amyloid peptide Aβ40 was purchased from AnaSpec Co. (Fremont, CA, USA) (>95% pure). Aβ40 was gently dissolved without vortexing in Type 1 (Milli-Q) water to a final concentration of 100 μM. Solutions of Aβ in phosphate buffer (PB, 10 mM, pH 7.33) were prepared by adding equal volumes of PB to aliquots of the aqueous solution stock to achieve final concentration of 50 µM. The proper amount of the compounds c2, c3, c4, di, dii, and dvi were added to the Aβ solutions to achieve concentration of 50 μM. The secondary structural changes of Aβ were monitored for 40 days by CD. During this period, the amyloid peptide solutions were kept at an incubator at 33 °C under quiescent conditions.
Circular dichroism measurements. CD spectra were recorded on a JASCO J-715 spectropolarimeter (Jasco Co., Tokyo, Japan), at 33 °C in the range of 190–260 nm with a 1 mm path length quartz cuvette. Each spectrum was the average of three scans at a speed of 100 nm·min^−1 and a resolution of 0.5 nm. Three independent experiments were run for each condition and in each case solutions of plain Aβ were run as control (Figure 8). The analysis of the CD data was performed using the OriginPro 9 program.

[1] = system: L929 mouse fibroblasts cells; assay: Cytotoxicity, propidium iodide fluorescence method; format: cell-based; conditions: 24-h incubation
How it was run: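 L929 cells in EMEM with 10% horse serum were allowed to attach for 24 h, then exposed to 1, 10, 20, 50 and 100 μM compound for 24 h at 37 °C. Cells were detached, stained with propidium iodide, and cell death was measured by flow cytometry.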

T1 sequence (P05067 672-711 limits assumed): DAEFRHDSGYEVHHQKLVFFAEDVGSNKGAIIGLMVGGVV

Row | Compound | effect on the aggregation process of Aβ40 (CD spectra) (Aβ40) | 1 μM Average (% pi) ± σ [1] [%] | 10 μM Average (% pi) ± σ [1] [%] | 20 μM Average (% pi) ± σ [1] [%] | 50 μM Average (% pi) ± σ [1] [%] | 100 μM Average (% pi) ± σ [1] [%]
1 | CC(=O)c1ccc(OCCCCCCCOc2ccc(C(C)=O)cc2)cc1 [dvi, 1,1′-((heptane-1,7-diylbis(oxy))bis-(4,1-phenylene)) diethanone] | did not significantly change the fibrillization course of Aβ40 | 0.37 ± 0.52 | 1.92 ± 1.02 | 1.79 ± 1.53 | 2.55 ± 0.5 | 2.55 ± 0.5
2 | CC(=O)c1ccc(OCCOc2ccc(C(C)=O)cc2)cc1 [di, 1,1′-((ethane-1,2-diylbis(oxy))bis(4,1-phenylene))diethanone] | did not significantly change the fibrillization course of Aβ40 | 4.94 ± 1.02 | 9.05 ± 0.58 | 16.78 ± 5.61 | 33.22 ± 9.65 | 33.22 ± 9.65
3 | O=C(/C=C/C=C/c1ccc([N+](=O)[O-])cc1)c1ccc(OCCCOc2ccc(C(=O)/C=C/C=C/c3ccc([N+](=O)[O-])cc3)cc2)cc1 [c11, (2E,2′E,4E,4′E)-1,1′-((propane-1,3-diylbis(oxy))bis(4,1-phenylene))bis(5-(4-nitrophenyl)penta-2,4-dien-1-one)] | – | 6.4 ± 0.4 | 19.07 ± 7.23 | 34.63 ± 0.31 | 64.53 ± 3.07 | 64.53 ± 3.07

Source: PMC6337391 (Molecules, 2019)
